According to patent publication US20190071670A1, “Methods Of Treatment For Alpha-1 Antitrypsin Deficiency” (Arrowhead Pharmaceuticals, Inc., priority 2016, published 2019):
Strand notation (5' to 3'): a small letter for the sugar, then the base; units joined by * are phosphorothioate-linked, units joined directly phosphodiester-linked; [ ] holds rarer units or linkages, { } end groups; capitals alone tell only the bases. {Chol-TEG} = cholesterol-triethylene glycol conjugate; [UNA-N] = unlocked nucleic acid (N: the base); [invdT] = inverted (3'-3') thymidine; d = 2'-deoxy (DNA); m = 2'-O-methyl; r = 2'-OH (RNA); f = 2'-fluoro

Tests used:
Z-AAT = settings: PiZ mouse model of AATD, cited from earlier work
hAAT = assay: Serum hAAT protein levels in PiZ mice (ELISA); assay type: in vivo, human (expressed in PiZ mice); settings: for Serum hAAT normalized to day 1: PiZ mice, single IV 6 mg/kg with 6 mg/kg MLP delivery polymer; for Serum hAAT normalized to day 1 and controls: female PiZ mice, single IV 8 mg/kg + 8 mg/kg MLP delivery polymer, mice euthanized Day 29
Procedure: (§1) Human AAT protein levels in serum were monitored for 29 days. At the indicated times, blood samples were collected and assayed for hAAT by ELISA. Day 1 samples were collected prior to trigger administration. For mRNA analysis, 3-4 mice were euthanized at each of days 3, 8, 15, 22, and 29. For euthanized mice, cardiac stick were performed for serum isolation for AAT ELISA (200 μl serum). Half of the left lateral liver lobe was collected and snap-freeze in liquid nitrogen for RNA isolation. The remainder of the left lobes were embedded into paraffin blocks for PAS-D staining with hematoxylin as counter-stain. Serum hAAT levels in mice given AAT Duplex Pair SEQ ID NO: 5/6 were 95% reduced on day 8 and remained reduced to day 29, at which time they were 79% reduced. Mice given AAT Duplex Pair SEQ ID NO: 5/6 were euthanized at either day 3, 8, 15, 22 or 29. Mice given saline or Luciferase siRNA control (SEQ ID 7/8) were euthanized on day 29. Levels of hAAT mRNA in the livers were measured by RT-qPCR. The hAAT mRNA in mice given AAT Duplex Pair SEQ ID NO: 5/6 was reduced by 97% on day 3 and remained reduced on day 29, at which time levels were 56% reduced. The size of the globules and the area of the liver covered by globules was digitally quantitated from liver specimens stained with PAS-D. Duplex Pair SEQ ID NO: 5/6 treated mice had 70% smaller globules at day 15 and 62% smaller globules at day 29. The area of the liver covered with globules was 83% reduced on day 15 and 72% reduced on day 29 (FIG. 5).

hAAT mRNA = assay: Liver hAAT mRNA levels in PiZ mice (RT-qPCR); assay type: in vivo, human (expressed in PiZ mice); settings: PiZ mice liver
Procedure: Compositions comprising double-stranded AAT expression-inhibiting oligomeric compounds were administered to PiZ mice. PiZ mice harbor the human PiZ AAT mutant allele and model human AATD (Carlson et al. Journal of Clinical Investigation 1989). […] Liver hAAT mRNA production was measured at days 3 and 10. Reduced mRNA levels correlated with decreased serum hAAT protein levels, except that mRNA reduction preceded protein reduction by a few days. The level of liver hAAT mRNA production was measured at day 3 and day 10 following a single dose of AAT RNAi agent with MLP delivery polymer in PiZ mice. A sustained decrease in liver hAAT mRNA levels was observed that correlated with the decrease observed in serum hAAT protein levels.
as §1

NC(=O)N1c2ccccc2C=Cc2ccccc21 [carbamazepine]
Z-AAT globules in hepatocytes and hepatic fibrosis (Z-AAT): mediate a reduction in Z-AAT globules in hepatocytes and ameliorated hepatic fibrosis

OCCN1CCN(CCCN2c3ccccc3Sc3ccc(C(F)(F)F)cc32)CC1 [fluphenazine]
Z-AAT globules in hepatocytes and hepatic fibrosis (Z-AAT): mediate a reduction in Z-AAT globules in hepatocytes and ameliorated hepatic fibrosis

C[C@H](CC(=O)O)[C@H]1CC[C@H]2[C@@H]3[C@@H](O)C[C@@H]4C[C@H](O)CC[C@]4(C)[C@H]3CC[C@]12C [nor-UDCA, nor-ursodeoxycholic acid]
apoptotic signaling and accumulation of mutant Z-AAT in hepatocytes (Z-AAT; associated with an increase in hepatic autophagy): reduced apoptotic signaling and reduced accumulation of mutant Z-AAT in hepatocytes

Luciferase siRNA control: Luciferase double-stranded siRNA control, SEQ ID NO: 7 and Chol-TEG SEQ ID NO: 8 (chain 1 dTfCmGfAmAfG[UNA-U]fAmCfUmCfAmGfCmGfUmAfAmGdT*dT; chain 2 {Chol-TEG}-mUrAmUfCmUfUmAfCmGfCmUfGmAfGmUfAmCfUmUfCmGfA[invdT]) [reference compound]
Serum hAAT normalized to day 1 (hAAT; day 1 (reference)): 1.00 | Serum hAAT normalized to day 1 (hAAT; day 3): 1.110 ± 0.147 | Serum hAAT normalized to day 1 (hAAT; day −2 (pre-dose)): 0.766 ± 0.219 | Serum hAAT normalized to day 1 and controls (hAAT; Day 1): 1.000 | Serum hAAT normalized to day 1 and controls (hAAT; Day 3): 0.994 ± 0.153 | Serum hAAT normalized to day 1 and controls (hAAT; Day 8): 1.090 ± 0.092 | Serum hAAT normalized to day 1 and controls (hAAT; Day 15): 0.890 ± 0.080 | Serum hAAT normalized to day 1 and controls (hAAT; Day 22): 1.171 ± 0.095 | Serum hAAT normalized to day 1 and controls (hAAT; Day 29): 0.797 ± 0.074 | Serum hAAT normalized to day 1 and controls (hAAT; Day −2): 1.268 ± 0.143 | Average relative mRNA level (hAAT) (hAAT mRNA; one injection 8 mg/kg + 8 mg/kg MLP delivery polymer, Day 29): 1.031 | hAAT mRNA level (hAAT mRNA; single IV 6 mg/kg with 6 mg/kg MLP delivery polymer, relative to mouse β-actin mRNA, day 3): 1.06 ± 0.20
